Legend:
Experiment in all cases: relative viability (nuclei count vs DMSO), 5 days (fraction); higher = more cells survive
[1] = compound: CN1CCN(CC1)C2=CC(=C(C=C2)NC3=NC(=C(S3)C(=O)C4=C(C=CC=C4Cl)Cl)N)OC [XMD14-99] + COc1cccc2cc(-c3nc([C@H]4CC[C@H](C(=O)O)CC4)n4ncnc(N)c34)[nH]c12 [OSI-027] (partner 0.5 µM)
Summary of the method: (§1)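 The day after seeding in 1536-well plates, lung cancer cell lines were treated by pin tool with a single drug, or with a fixed anchor-drug dose together with five library-drug doses (not always all listed) in √10 steps. After 5 days, a combined fix-and-stain solution (final 0.05% Triton X-100, 1% formaldehyde, 1 ug/ml Hoechst) was added. Nuclei counted on 4× images gave relative viability as treated counts over vehicle counts, reported as the median of duplicate plates.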

[2] = compound: N[C@@H]1CCCN(c2c(/C=C3\SC(=O)NC3=O)cccc2-c2ccccc2)C1 [AZD1208] + NC(=O)Nc1cc(-c2cccc(F)c2)sc1C(=O)N[C@H]1CCCNC1 [AZD7762] (partner 0.2 µM)
Summary of the method: as §1

[3] = compound: N[C@@H]1CCCN(c2c(/C=C3\SC(=O)NC3=O)cccc2-c2ccccc2)C1 [AZD1208] + CCNC(=O)c1noc(-c2cc(C(C)C)c(O)cc2O)c1-c1ccc(CN2CCOCC2)cc1 [Luminespib] (partner 0.01 µM)
Summary of the method: as §1

[4] = compound: N[C@@H]1CCCN(c2c(/C=C3\SC(=O)NC3=O)cccc2-c2ccccc2)C1 [AZD1208] + CS(=O)(=O)CCNCc1ccc(-c2ccc3ncnc(Nc4ccc(OCc5cccc(F)c5)c(Cl)c4)c3c2)o1 [Lapatinib] (partner 2 µM)
Summary of the method: as §1

Cell Line | relative viability ([1]; first compound 0.08 µM) | relative viability ([1]; first compound 0.8 µM) | relative viability ([1]; first compound 2.53 µM) | relative viability ([1]; first compound 8 µM) | relative viability ([2]; first compound 0.08 µM) | relative viability ([2]; first compound 0.253 µM) | relative viability ([2]; first compound 0.8 µM) | relative viability ([2]; first compound 2.53 µM) | relative viability ([2]; first compound 8 µM) | relative viability ([3]; first compound 0.08 µM) | relative viability ([3]; first compound 0.253 µM) | relative viability ([3]; first compound 0.8 µM) | relative viability ([3]; first compound 2.53 µM) | relative viability ([3]; first compound 8 µM) | relative viability ([4]; first compound 0.08 µM) | relative viability ([4]; first compound 0.253 µM) | relative viability ([4]; first compound 0.8 µM) | relative viability ([4]; first compound 2.53 µM) | relative viability ([4]; first compound 8 µM)
NCI-H1648 | 0.268 | 0.25 | 0.231 | 0.227 | 0.584 | 0.618 | 0.684 | 0.533 | 1.28 | – | – | – | – | – | – | – | – | – | –
NCI-H1650 | 0.705 | 0.7 | 0.49 | 0.395 | – | – | – | – | – | 0.208 | 0.151 | 0.188 | 0.211 | 0.204 | 0.777 | 0.878 | 0.735 | 0.602 | 0.667
NCI-H1703 | – | – | – | – | 0.116 | 0.0963 | 0.18 | 0.128 | 0.102 | – | – | – | – | – | 0.852 | 1.04 | 0.804 | 1.05 | 0.626
NCI-H2009 | 0.611 | 0.607 | 0.508 | 0.273 | – | – | – | – | – | 1.1 | 1.04 | 1.06 | 1.09 | 1.05 | 0.982 | 1.21 | 0.817 | 0.742 | 0.893
NCI-H2023 | 0.42 | 0.427 | 0.299 | 0.209 | – | – | – | – | – | 0.677 | 0.75 | 0.588 | 0.597 | 0.416 | 0.757 | 0.903 | 0.68 | 0.668 | 0.635
NCI-H2228 | 0.687 | 0.583 | 0.505 | 0.199 | – | – | – | – | – | 0.162 | 0.112 | 0.125 | 0.136 | 0.163 | 1.03 | 1.3 | 0.971 | – | 0.652
NCI-H2342 | 0.594 | 0.674 | 0.752 | 0.548 | 0.553 | 0.417 | 0.461 | 0.474 | 0.409 | 0.686 | 0.713 | 0.653 | 0.672 | 0.533 | – | – | – | – | –
SK-LU-1 | 0.34 | 0.391 | 0.301 | 0.213 | – | – | – | – | – | 0.186 | 0.198 | 0.194 | 0.226 | 0.198 | 0.802 | 0.864 | 0.826 | 0.831 | 0.839
SK-MES-1 | 0.589 | 0.506 | 0.54 | 0.291 | – | – | – | – | – | 0.771 | 0.736 | 0.607 | 0.689 | 0.531 | 0.407 | 0.418 | 0.421 | 0.415 | 0.374
SW 900 | 0.532 | 0.727 | 0.548 | 0.366 | 0.62 | 0.518 | 0.453 | 0.576 | 0.485 | 0.191 | 0.172 | 0.167 | 0.185 | 0.162 | – | – | – | – | –
SW 1573 | 0.629 | 0.758 | 0.599 | 0.493 | – | – | – | – | – | 0.292 | 0.429 | 0.198 | 0.152 | 0.208 | 1.02 | 1.07 | 0.959 | 1.01 | 1.05
UMC-11 | 0.495 | 0.46 | 0.421 | 0.359 | – | – | – | – | – | 0.816 | 0.894 | 0.62 | 0.664 | 0.406 | 0.819 | 0.739 | 0.679 | 0.487 | 0.466
